Data as given in US8637568B2, “Serotonin reuptake inhibitors” (Theravance, Inc., priority 2010, dated 2014).

Molecular target: T1, human recombinant SERT (HEK293-hSERT cells) (Homo sapiens, UniProt P31645)
T1 construct: expressed in transfected cells; host or cells: HEK293 (stably transfected), whole cells
Assay: hSERT neurotransmitter uptake assay
Assay type: cell-based
Details: serotonin reuptake inhibition in HEK293-hSERT cells; for IC50: read-out: SERT pIC50 (converted)
Method: HEK293 cells stably-transfected with human recombinant SERT (HEK293-hSERT) were grown in Dulbecco's Modified Eagle's Medium supplemented with 10% dialyzed fetal bovine serum, 100 µg/ml penicillin, 100 µg/ml streptomycin, 2 mM L-glutamine, and 250 μg/ml of the aminoglycoside antibiotic G418. Cells were incubated in a 5% CO2, humidified incubator at 37° C.
In pre-incubation studies, test compound was added to cells for 30 minutes at 37° C. prior to the addition of fluorescent substrate. […] For real-time measurements, compounds were either preincubated (as above) or mixed with substrate prior to addition, and kinetic measurements, relative fluorescence units (RFU integrated over 0.5 ms),were made using a cycle time of 1 min.

T1 sequence (P31645 whole entry): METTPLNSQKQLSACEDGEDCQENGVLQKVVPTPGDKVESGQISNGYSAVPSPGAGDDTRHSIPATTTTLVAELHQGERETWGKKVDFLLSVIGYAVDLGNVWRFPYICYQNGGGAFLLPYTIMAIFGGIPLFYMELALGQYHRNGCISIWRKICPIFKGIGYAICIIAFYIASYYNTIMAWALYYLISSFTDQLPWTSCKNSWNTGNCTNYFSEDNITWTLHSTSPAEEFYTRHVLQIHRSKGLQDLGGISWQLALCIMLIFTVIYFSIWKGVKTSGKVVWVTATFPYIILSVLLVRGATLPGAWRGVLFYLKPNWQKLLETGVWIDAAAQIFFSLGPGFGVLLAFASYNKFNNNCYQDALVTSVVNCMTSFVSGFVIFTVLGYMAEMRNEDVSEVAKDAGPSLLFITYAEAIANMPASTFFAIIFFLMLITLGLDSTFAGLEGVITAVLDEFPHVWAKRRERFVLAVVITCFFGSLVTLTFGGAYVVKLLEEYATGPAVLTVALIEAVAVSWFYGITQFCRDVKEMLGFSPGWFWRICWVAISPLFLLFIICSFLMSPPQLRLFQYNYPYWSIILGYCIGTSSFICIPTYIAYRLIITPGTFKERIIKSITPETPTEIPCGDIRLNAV

SMILES | IC50 [nM] | SERT pIC50
CS(=O)(=O)NC[C@@H](Oc1ccc(C(F)(F)F)cc1)[C@@H]1CCNC1 (stereo in doubt) [Example 3-2, N-[(R)-2-(S)-Pyrrolidin-3-yl-2-(4-trifluoromethylphenoxy)ethyl]-methanesulfonamide] | ≤ 100 | –
CNS(=O)(=O)N(C)C[C@@H](Oc1ccc(C(F)(F)F)cc1)[C@H]1CCNC1 [Example 1] | ≤ 10 | –
O=S(=O)(NC[C@@H](Oc1ccc(C(F)(F)F)cc1)[C@H]1CCNC1)c1ccc(-c2cnco2)cc1 [Example 2, 4-Oxazol-5-yl-N—[(S)-2-(S)-pyrrolidin-3-yl-2-(4-trifluoromethylphenoxy)ethyl]benzenesulfonamide] | ≤ 10 | –
CN(C[C@@H](Oc1ccc(C(F)(F)F)cc1)[C@H]1CCNC1)S(C)(=O)=O [Example 3-3, N-Methyl-N-[(S)-2-(S)-pyrrolidin-3-yl-2-(4-trifluoromethylphenoxy)ethyl]-methanesulfonamide] | ≤ 10 | –
CCS(=O)(=O)NC[C@@H](Oc1ccc(C(F)(F)F)cc1)[C@H]1CCNC1 [Example 3-5, Ethanesulfonic acid [(S)-2-(S)-pyrrolidin-3-yl-2-(4-trifluoromethylphenoxy)-ethyl]amide] | ≤ 10 | –
CC(C)S(=O)(=O)NC[C@@H](Oc1ccc(C(F)(F)F)cc1)[C@H]1CCNC1 [Example 3-7, Propane-2-sulfonic acid [(S)-2-(S)-pyrrolidin-3-yl-2-(4-trifluoromethylphenoxy)ethyl]amide] | ≤ 100 | –
O=S(=O)(NC[C@@H](Oc1ccc(C(F)(F)F)cc1)[C@H]1CCNC1)C1CC1 [Example 3-8, Cyclopropanesulfonic acid [(S)-2-(S)-pyrrolidin-3-yl-2-(4-trifluoromethylphenoxy)ethyl]amide] | ≤ 10 | –
NC(=O)NS(=O)(=O)NC[C@@H](Oc1ccc(C(F)(F)F)cc1)[C@H]1CCNC1 [Example 3-10, N[(S)-2-(S)-pyrrolidin-3-yl-2-(4-trifluoromethylphenoxy)ethyl]sulfonylurea] | – | ≧7.0
CN(C)S(=O)(=O)NC[C@@H](Oc1ccc(C(F)(F)F)cc1)[C@H]1CCNC1 [Example 3-11] | ≤ 10 | –

The remaining lines, values ahead:

IC50 [nM] | SERT pIC50 | SMILES
≤ 10 | – | O=S(=O)(NC[C@@H](Oc1ccc(C(F)(F)F)cc1)[C@@H]1CCNC1)c1ccccc1 (stereo in doubt) [Example 3-18, N-[(R)-2-(S)-Pyrrolidin-3-yl-2-(4-trifluoromethylphenoxy)ethyl]benzenesulfonamide]
≤ 10 | – | CS(=O)(=O)CS(=O)(=O)NC[C@@H](Oc1ccc(C(F)(F)F)cc1)[C@H]1CCNC1 [Example 3-12, C-Methanesulfonyl-N-[(S)-2-(S)-pyrrolidin-3-yl-2-(4-trifluoromethylphenoxy)ethyl]methanesulfonamide]
≤ 100 | – | O=S(=O)(NC[C@@H](Oc1ccc(C(F)(F)F)cc1)[C@H]1CCNC1)c1cnc[nH]1 [Example 3-13, 3H-Imidazole-4-sulfonic acid [(S)-2-(S)-pyrrolidin-3-yl-2-(4-trifluoromethylphenoxy)ethyl]amide]
≤ 100 | – | Cn1cncc1S(=O)(=O)NC[C@@H](Oc1ccc(C(F)(F)F)cc1)[C@H]1CCNC1 [Example 3-14, 3-Methyl-3H-imidazole-4-sulfonic acid [(S)-2-(S)-pyrrolidin-3-yl-2-(4-trifluoromethylphenoxy)ethyl]amide]
≤ 100 | – | O=S(=O)(NC[C@@H](Oc1ccc(C(F)(F)F)cc1)[C@H]1CCNC1)c1ncn[nH]1 [Example 3-15]
≤ 10 | – | O=S(=O)(NC[C@@H](Oc1ccc(C(F)(F)F)cc1)[C@H]1CCNC1)c1cccc2nonc12 [Example 3-16, Benzo[1,2,5]oxadiazole-4-sulfonic acid [(S)-2-(S)-pyrrolidin-3-yl-2-(4-trifluoromethylphenoxy)ethyl]amide]
≤ 10 | – | O=S(=O)(NC[C@@H](Oc1ccc(C(F)(F)F)cc1)[C@H]1CCNC1)N1CCOCC1 [Example 3-17, Morpholine-4-sulfonic acid [(S)-2-(S)-pyrrolidin-3-yl-2-(4-trifluoromethylphenoxy)ethyl]amide]
